2 compounds from ChEMBL document CHEMBL1201862, “PubChem BioAssay data set” (2004) can be followed below.

Calls of active or inactive are those of the source.

The target of experiment [1] is Serine/threonine-protein phosphatase PP1-alpha catalytic subunit (Homo sapiens, UniProt P62136). Nature of the experiment: PP1 phosphatase inhibitors, dose response, biochemical, fluorescence (AID 2394).
The target of experiment [2] is T1, Apoptotic protease-activating factor 1 (Homo sapiens, UniProt O14727).
T1 sequence (O14727 whole entry): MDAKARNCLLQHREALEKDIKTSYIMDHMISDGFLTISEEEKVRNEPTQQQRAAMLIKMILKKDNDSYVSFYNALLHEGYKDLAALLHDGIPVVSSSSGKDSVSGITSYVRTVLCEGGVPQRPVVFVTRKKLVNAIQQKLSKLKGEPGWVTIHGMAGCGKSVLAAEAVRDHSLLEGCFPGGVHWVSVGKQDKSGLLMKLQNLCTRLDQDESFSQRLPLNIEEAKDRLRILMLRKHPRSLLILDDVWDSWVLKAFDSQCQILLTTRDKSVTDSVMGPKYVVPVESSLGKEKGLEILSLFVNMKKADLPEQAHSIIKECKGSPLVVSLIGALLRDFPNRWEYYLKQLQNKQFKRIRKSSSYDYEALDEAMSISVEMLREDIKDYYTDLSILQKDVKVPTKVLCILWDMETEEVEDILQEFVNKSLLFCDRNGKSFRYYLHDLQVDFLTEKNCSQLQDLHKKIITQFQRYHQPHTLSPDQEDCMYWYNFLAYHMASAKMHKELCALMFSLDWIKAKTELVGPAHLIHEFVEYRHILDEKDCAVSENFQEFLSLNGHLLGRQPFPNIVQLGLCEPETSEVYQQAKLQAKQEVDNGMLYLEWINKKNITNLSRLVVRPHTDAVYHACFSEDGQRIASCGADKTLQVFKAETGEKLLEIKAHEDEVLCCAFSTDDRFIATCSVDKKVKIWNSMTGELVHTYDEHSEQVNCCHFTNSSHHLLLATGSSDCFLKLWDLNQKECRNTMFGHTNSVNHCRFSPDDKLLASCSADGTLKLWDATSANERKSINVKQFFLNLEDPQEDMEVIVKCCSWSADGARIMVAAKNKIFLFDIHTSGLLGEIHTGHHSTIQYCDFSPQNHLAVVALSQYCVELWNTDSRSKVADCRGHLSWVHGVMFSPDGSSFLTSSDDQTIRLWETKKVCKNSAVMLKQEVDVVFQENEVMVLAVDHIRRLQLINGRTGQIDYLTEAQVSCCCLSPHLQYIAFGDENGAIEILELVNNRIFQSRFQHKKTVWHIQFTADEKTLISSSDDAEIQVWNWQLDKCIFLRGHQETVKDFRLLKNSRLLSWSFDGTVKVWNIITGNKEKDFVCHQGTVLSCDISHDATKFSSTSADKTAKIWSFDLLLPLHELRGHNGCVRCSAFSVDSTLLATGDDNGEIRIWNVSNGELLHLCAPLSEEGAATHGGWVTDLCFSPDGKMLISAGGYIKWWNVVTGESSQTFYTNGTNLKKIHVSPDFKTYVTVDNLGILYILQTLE
It counts as functional.

Experiment [3] deals with Serine/threonine-protein phosphatase (Homo sapiens, UniProt Q9BPW0). Kind of experiment: PP5 phosphatase inhibitors, dose response, biochemical, fluorescence (AID 2395).
Chain of Serine/threonine-protein phosphatase (Q9BPW0 whole entry): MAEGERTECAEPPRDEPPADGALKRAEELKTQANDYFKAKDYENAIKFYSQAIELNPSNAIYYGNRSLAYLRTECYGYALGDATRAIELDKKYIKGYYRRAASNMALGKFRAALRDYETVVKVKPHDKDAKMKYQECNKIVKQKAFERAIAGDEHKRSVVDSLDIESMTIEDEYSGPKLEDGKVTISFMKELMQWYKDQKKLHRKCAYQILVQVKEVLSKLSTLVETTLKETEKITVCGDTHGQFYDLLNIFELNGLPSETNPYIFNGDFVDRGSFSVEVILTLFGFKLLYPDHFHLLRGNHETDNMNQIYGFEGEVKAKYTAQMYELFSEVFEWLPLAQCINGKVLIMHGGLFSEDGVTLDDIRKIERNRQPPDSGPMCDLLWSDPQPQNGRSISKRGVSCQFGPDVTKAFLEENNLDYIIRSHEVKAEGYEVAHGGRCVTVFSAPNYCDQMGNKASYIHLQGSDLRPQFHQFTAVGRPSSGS
Experiment [4] addresses T2, Histone-lysine N-methyltransferase NSD2 (Homo sapiens, UniProt O96028).
T2 sequence (O96028 whole entry): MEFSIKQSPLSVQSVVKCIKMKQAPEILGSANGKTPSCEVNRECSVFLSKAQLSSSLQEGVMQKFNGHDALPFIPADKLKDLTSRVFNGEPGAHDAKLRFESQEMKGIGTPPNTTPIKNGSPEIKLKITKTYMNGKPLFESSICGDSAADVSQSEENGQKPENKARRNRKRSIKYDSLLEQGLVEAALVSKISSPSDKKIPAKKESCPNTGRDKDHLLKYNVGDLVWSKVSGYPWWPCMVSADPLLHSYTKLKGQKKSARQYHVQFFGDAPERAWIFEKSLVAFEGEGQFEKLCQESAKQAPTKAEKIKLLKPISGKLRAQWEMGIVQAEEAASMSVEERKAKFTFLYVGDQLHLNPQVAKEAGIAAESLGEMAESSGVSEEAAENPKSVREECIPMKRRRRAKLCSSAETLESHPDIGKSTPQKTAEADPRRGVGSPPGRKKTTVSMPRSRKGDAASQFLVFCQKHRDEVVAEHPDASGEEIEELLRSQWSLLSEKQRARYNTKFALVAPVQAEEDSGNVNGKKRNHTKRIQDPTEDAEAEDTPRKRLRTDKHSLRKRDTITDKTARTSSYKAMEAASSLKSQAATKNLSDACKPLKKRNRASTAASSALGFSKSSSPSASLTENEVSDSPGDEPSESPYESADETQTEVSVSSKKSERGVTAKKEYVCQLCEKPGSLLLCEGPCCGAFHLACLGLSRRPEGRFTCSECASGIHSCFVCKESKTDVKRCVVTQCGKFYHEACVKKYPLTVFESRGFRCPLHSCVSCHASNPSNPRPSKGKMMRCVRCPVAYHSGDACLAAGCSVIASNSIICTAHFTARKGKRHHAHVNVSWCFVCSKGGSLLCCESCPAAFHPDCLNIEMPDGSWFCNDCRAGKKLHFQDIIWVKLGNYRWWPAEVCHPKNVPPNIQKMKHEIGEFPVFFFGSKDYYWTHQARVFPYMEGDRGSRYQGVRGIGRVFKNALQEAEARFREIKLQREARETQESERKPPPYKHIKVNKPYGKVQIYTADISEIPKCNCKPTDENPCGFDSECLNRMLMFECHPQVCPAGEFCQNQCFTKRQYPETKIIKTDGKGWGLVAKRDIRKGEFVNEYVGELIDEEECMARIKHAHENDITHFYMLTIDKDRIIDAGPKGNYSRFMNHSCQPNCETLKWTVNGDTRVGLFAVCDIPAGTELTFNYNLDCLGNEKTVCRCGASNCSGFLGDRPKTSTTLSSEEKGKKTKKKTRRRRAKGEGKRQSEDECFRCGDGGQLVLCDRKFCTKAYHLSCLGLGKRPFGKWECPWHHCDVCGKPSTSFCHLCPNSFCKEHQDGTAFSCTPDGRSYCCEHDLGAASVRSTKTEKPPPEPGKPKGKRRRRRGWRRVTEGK
Type of experiment: biochemical.

Chain of Serine/threonine-protein phosphatase PP1-alpha catalytic subunit (P62136 whole entry): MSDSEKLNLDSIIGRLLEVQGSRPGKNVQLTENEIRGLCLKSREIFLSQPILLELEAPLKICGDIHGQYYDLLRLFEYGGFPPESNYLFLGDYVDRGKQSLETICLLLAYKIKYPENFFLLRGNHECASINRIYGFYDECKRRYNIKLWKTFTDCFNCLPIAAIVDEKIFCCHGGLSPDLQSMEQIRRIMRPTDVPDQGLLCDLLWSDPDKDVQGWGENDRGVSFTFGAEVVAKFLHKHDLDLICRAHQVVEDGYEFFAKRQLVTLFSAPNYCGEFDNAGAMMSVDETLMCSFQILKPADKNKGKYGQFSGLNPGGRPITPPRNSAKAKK

As for `Oc1cccc(/C=N/Nc2cc(N3CCCC3)nc(N3CCCC3)n2)c1`, the IC50 in experiment [1] is 21.6 µM (not active); in experiment [2], 1.84 µM (active); in experiment [3], 5.83 µM (active).

Consider `CCOC(=O)C1=C(COC(=O)c2ccc([N+](=O)[O-])s2)NC(=O)NC1C` (centres undefined), for which, in experiment [4], the AC50 is 5.86 µM (active).
